Literature values, collected in US9555029B2 (HIKMA PHARMACEUTICALS, priority 2013, dated 2017).

How the values were obtained:
P-gp = P-gp (Homo sapiens, UniProt P08183); settings: FDA definition; cited from earlier work
CYP3A4 = CYP3A4 (Homo sapiens, UniProt P08684); settings: FDA definition of relative strength; cited from earlier work
Sequence of CYP3A4 (P08684 whole entry): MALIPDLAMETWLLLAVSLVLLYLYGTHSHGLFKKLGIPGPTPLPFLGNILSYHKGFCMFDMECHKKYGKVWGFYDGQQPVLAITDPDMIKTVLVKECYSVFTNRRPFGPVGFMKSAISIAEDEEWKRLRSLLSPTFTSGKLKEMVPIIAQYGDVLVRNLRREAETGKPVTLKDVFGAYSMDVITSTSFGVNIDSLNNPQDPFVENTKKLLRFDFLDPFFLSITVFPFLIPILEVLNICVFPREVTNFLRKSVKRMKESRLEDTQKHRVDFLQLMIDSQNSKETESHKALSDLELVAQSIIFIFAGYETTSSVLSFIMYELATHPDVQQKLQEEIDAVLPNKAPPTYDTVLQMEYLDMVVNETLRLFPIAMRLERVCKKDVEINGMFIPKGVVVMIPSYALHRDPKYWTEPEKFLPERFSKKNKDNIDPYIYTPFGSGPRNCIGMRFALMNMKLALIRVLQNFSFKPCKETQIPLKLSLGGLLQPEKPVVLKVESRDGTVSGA

Sequence of P-gp (P08183 whole entry): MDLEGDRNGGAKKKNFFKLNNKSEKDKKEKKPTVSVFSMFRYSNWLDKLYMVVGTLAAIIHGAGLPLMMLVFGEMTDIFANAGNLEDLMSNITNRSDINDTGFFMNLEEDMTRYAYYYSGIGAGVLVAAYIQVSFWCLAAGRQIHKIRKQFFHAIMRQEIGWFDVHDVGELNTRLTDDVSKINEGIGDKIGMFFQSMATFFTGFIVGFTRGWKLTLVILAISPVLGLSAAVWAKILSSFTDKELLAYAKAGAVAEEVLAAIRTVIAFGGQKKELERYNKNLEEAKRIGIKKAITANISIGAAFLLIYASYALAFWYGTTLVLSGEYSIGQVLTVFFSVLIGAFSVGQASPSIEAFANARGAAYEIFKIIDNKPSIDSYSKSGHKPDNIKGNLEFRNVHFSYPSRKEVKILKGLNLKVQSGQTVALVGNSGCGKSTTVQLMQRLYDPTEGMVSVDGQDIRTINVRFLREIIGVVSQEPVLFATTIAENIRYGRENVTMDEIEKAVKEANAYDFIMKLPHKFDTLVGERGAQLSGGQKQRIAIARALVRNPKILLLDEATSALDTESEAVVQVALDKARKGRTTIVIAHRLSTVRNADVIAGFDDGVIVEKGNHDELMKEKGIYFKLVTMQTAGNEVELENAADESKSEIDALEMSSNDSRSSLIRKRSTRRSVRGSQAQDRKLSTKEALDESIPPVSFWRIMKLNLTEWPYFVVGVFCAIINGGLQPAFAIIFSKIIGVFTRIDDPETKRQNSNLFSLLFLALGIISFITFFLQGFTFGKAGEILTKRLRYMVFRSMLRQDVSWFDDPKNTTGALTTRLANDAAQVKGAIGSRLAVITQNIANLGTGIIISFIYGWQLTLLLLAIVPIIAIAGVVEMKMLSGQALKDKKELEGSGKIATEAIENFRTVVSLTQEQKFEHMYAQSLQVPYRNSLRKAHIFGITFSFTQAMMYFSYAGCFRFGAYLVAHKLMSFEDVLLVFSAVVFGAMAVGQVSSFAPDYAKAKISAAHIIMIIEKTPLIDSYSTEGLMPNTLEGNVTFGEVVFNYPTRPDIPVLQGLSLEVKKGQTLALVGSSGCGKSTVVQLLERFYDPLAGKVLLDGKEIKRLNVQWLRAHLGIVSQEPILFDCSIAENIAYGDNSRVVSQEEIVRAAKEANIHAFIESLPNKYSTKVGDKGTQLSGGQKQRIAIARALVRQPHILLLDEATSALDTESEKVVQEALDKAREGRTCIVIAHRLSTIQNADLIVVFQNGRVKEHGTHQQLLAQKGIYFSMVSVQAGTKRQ

| Structure (SMILES) | Inhibitor of P-gp (P-gp) | Strength as inhibitor of CYP3A4 (CYP3A4) |
| --- | --- | --- |
| CN/C(=N/CCSCc1nc[nH]c1C)NC#N [Cimetidine, 2-cyano-1-methyl-3-(2-[(5-methyl-1H-imidazol-4-yl)methylthio]ethyl)guanidine] | not an inhibitor |  |
| OC(Cn1cncn1)(Cn1cncn1)c1ccc(F)cc1F [Fluconazole, 2-(2,4-difluorophenyl)-1,3-bis(1H-1,2,4-triazol-1-yl)propan-2-ol] | not an inhibitor | moderate (“Moderate inhibitors” cause ≧2-fold but <5-fold (i.e., 100-399%) increase in AUC) |
| C[C@@H](c1ncncc1F)[C@](O)(Cn1cncn1)c1ccc(F)cc1F [Voriconazole, (2R,3S)-2-(2,4-difluorophenyl)-3-(5-fluoropyrimidin-4-yl)-1-(1H-1,2,4-triazol-1-yl)butan-2-ol] | not an inhibitor |  |
